Target: T1, LUSH (Drosophila melanogaster, UniProt O02372)
T1 sequence (O02372 30-153): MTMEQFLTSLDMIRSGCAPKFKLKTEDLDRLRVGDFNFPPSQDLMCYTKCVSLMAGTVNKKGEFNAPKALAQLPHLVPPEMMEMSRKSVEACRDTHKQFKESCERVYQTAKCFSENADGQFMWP
Format: binding

Structure (SMILES)	Kd [nM]
CCC/C=C\C=C\CCCCCCCCCO [bombykol]	215
CCCCCC/C=C\CCCCCCCCCCOC(C)=O [cVA, 11-cis vaccenyl acetate]	108

— publication PMC3552018 (Insect molecular biology, 2012)
